Drawing on patent US20200315984A1 (priority 2013, published 2020), this text covers AUC, Cmax and pKa for one compound.

Data set [1] is described as follows: Extrapolated absorption data for dual-film dosage. Type of data set: in vivo. Particulars: human, plasma, dual-layered film; for AUC: local pH 3.5 and 5.5, read-out: Naloxone AUC; for Cmax: local pH 3.5 and 5.5, read-out: Naloxone Cmax. The procedure: A dual-film dosage is prepared, with the first film layer having a local pH of about 3.5 and containing an antagonist therein, and the second film layer having a local pH of about 5.5 and containing an agonist therein. In this dual-film dosage, the first film layer (having the antagonist) is a fast-dissolving film, while the second film layer (having the agonist) is a moderate dissolving film.

The conditions of data set [2]: cited from earlier work.
The mark [3] stands for this setting: other: sublingual or buccal film.
[4] abbreviates: other: sublingual/buccal film dissolved in the oral cavity.

Each structure is given as a SMILES string. Where two headings read alike, the source gives them in different places.

For `C=CCN1CC[C@]23c4c5ccc(O)c4O[C@H]2C(=O)CC[C@@]3(O)[C@H]1C5` [naloxone], in data set [1] (setting [3]), the AUC is 0.0905 to 0.724 ng·h/mL and the Cmax was 0.0325 to 0.26 ng/mL. Further, in data set [1] (setting [4]), the AUC is 0.0906 to 0.724 ng·h/mL and the Cmax was 0.0325 to 0.26 ng/mL. Also, the pKa result in data set [2] was “about 7.94”.
